Residues, ends and D or L forms follow the SMILES beside them.
Columns and labels:
[1] = system: RNA 25 (RNA, aptamer) GGCAAGUACUCUGACGCCGAAGCCAGCCGGCGAUUGGGAACGACGGAAUUCCUCACUUCUGUUAAAGGUCAACCAGGGCGUAGAGGAGGACAGCG; assay: isocratic affinity elution from His–Phe–Sepharose; details: 600 mM NaCl, 5 mM MgCl2, 5 mM CaCl2; 50 mM HEPES pH 7.0
[2] = system: RNA 7 (RNA, aptamer) GGCAAGUACUCUGACGCAGAUGGAAGUACCUUUGAACUGGGGGAGAAUGGUUAUGAGAAUCUAGCGAAGCCGGAGGUGCGUAGAGGAGGACAGCG; assay: isocratic affinity elution from His–Phe–Sepharose; details: 600 mM NaCl, 5 mM MgCl2, 5 mM CaCl2; 50 mM HEPES pH 7.0
[3] = system: RNA 40 (RNA, aptamer) GGCAAGUACUCUGACGCAAGGGUAGAUAUGCGUAUAUGCAGAUCCCAAAUAAAGGACGAAUUUAGUACGGGGGGUGUGCGUAGAGGAGGACAGCG; assay: isocratic affinity elution from His–Phe–Sepharose; details: 600 mM NaCl, 5 mM MgCl2, 5 mM CaCl2; 50 mM HEPES pH 7.0
[4] = system: RNA 8 (RNA, aptamer) GGCAAGUACUCUGACGCAGUGGAAGUUAUGUGUAUGCGGUAGAUAGGUAACGUUCUGUCAUAGGAAGGUACUAUCGUGCGUAGAGGAGGACAGCG; assay: isocratic affinity elution from His–Phe–Sepharose; details: 600 mM NaCl, 5 mM MgCl2, 5 mM CaCl2; 50 mM HEPES pH 7.0
[5] = system: RNA 33 (RNA, aptamer) GGCAAGUACUCUGACGCGCCGAAAUGGGAGGGGUGGCGUUAACCGGCAAAGCUGCACGGGCGAUGAAGAAACGCGGGGCGUAGAGGAGGACAGCG; assay: elution from His–Phe–Sepharose by free ligand; details: 600 mM NaCl, 5 mM MgCl2, 5 mM CaCl2; 50 mM HEPES pH 7.0; 1.5 mM dipeptide
[6] = system: RNA 23 (RNA, aptamer) GGCAAGUACUCUGACGCGGAUGGGCCAACGGCGAGCGUCGAAGGAGCUUAGUACCGAAGCAACGCAAGCGUAGAGCGGCGUAGAGGAGGACAGCG; assay: elution from His–Phe–Sepharose by free ligand; details: 600 mM NaCl, 5 mM MgCl2, 5 mM CaCl2; 50 mM HEPES pH 7.0; 1.5 mM dipeptide
[7] = system: RNA 11 (RNA, aptamer) GGCAAGUACUCUGACGCGAGGGUGGAUACGUGUAUGCGGUUACAUCUGUGGUUUCUAAAAGAGCAAGCCGAUGUGGCGUAGAGGAGGACAGCG; assay: elution from His–Phe–Sepharose by free ligand; details: 600 mM NaCl, 5 mM MgCl2, 5 mM CaCl2; 50 mM HEPES pH 7.0; 1.5 mM dipeptide
[8] = system: RNA 35 (RNA, aptamer) GGCAAGUACUCUGACGCGUGGGAAGAUACGUGUAUACGCUAACAUACGGCAAGGUGAGUAGCCGGAAGUAGCAUGUGGCGUAGAGGAGGACAGCG; assay: elution from His–Phe–Sepharose by free ligand; details: 600 mM NaCl, 5 mM MgCl2, 5 mM CaCl2; 50 mM HEPES pH 7.0; 1.5 mM dipeptide
[9] = system: RNA 44 (RNA, aptamer) GGCAAGUACUCUGACGCUAGGCAGCGGCGAGGGAAGUUGGAGCUUAGACCAGUUAGGAGCUGGAGACCAGGCAGUCGGCGUAGAGGAGGACAGCG; assay: affinity column elution; details: 600 mM NaCl, 5 mM MgCl2, 5 mM CaCl2; 50 mM HEPES pH 7.0
[10] = system: RNA 12 (RNA, aptamer) GGCAAGUACUCUGACGCGUGCUGCGGGCCGUUCAUAGUGGACGGGGUAGACAGAGAACCUUAGACCAAGGUAUCGGCGCGUAGAGGAGGACAGCG; assay: elution from His–Phe–Sepharose by free ligand; details: 600 mM NaCl, 5 mM MgCl2, 5 mM CaCl2; 50 mM HEPES pH 7.0; 1.5 mM dipeptide
[11] = system: RNA 39 (RNA, aptamer) GGCAAGUACUCUGACGCGGAUGGGCCACCAAAGCACCGAAGGGUAGGAGCCACUAACUUGCGGUGAAUGGAAGAGCGGCGUAGAGGAGGACAGCG; assay: elution from His–Phe–Sepharose by free ligand; details: 600 mM NaCl, 5 mM MgCl2, 5 mM CaCl2; 50 mM HEPES pH 7.0; 1.5 mM dipeptide
[12] = system: RNA 13 (RNA, aptamer) GGCAAGUACUCUGACGCCUGAUGUGAUGGCCUUGGUCGAAGCGGGAUCCGACAGCUACUAUAGAGGUGUUGUCGAGGGCGUAGAGGAGGACAGCG; assay: elution from His–Phe–Sepharose by free ligand; details: 600 mM NaCl, 5 mM MgCl2, 5 mM CaCl2; 50 mM HEPES pH 7.0; 1.5 mM dipeptide
[13] = system: RNA 24 (RNA, aptamer) GGCAAGUACUCUGACGCCCUGAGAGCGUAAUGUGACGGACAGUCGCACUGGAGGAGGAGGAAGUGAUGCAUCGAUCGGCGUAGAGGAGGACAGCG; assay: elution from His–Phe–Sepharose by free ligand; details: 600 mM NaCl, 5 mM MgCl2, 5 mM CaCl2; 50 mM HEPES pH 7.0; 1.5 mM dipeptide
[14] = system: RNA 20 (RNA, aptamer) GGCAAGUACUCUGACGCGGAUGGGCCACAACGGAUCAGACGACAGGCAUUCUUUGAAGGAAAGAUCCCAGCAGAGCGGCGUAGAGGAGGACAGCG; assay: elution from His–Phe–Sepharose by free ligand; details: 600 mM NaCl, 5 mM MgCl2, 5 mM CaCl2; 50 mM HEPES pH 7.0; 1.5 mM dipeptide
[15] = system: RNA 6 (RNA, aptamer) GGCAAGUACUCUGACGCCGGUGGCGCAGACAGAUUUCCAGUAUGGCACGGACCGGAGAGGGAAGGAUGACAGACGUGGCGUAGAGGAGGACAGCG; assay: elution from His–Phe–Sepharose by free ligand; details: 600 mM NaCl, 5 mM MgCl2, 5 mM CaCl2; 50 mM HEPES pH 7.0; 1.5 mM dipeptide
[16] = system: RNA 22 (RNA, aptamer) GGCAAGUACUCUGACGCGAAAUGUACAUGGCGUUAAAGUAGACGCAGGAUUAAGUGUGCUGUGGAGUCGAAACGCGGGCGUAGAGGAGGACAGCG; assay: elution from His–Phe–Sepharose by free ligand; details: 600 mM NaCl, 5 mM MgCl2, 5 mM CaCl2; 50 mM HEPES pH 7.0; 1.5 mM dipeptide

Row | Structure (SMILES) | K D [1] [mM] | K D [2] [mM] | K D [3] [mM] | K D [4] [mM] | binding [5] | binding [6] | binding [7] | binding [8] | binding [9] | binding [10] | binding [11] | binding [12] | binding [13] | binding [14] | binding [15] | binding [16]
1 | NCC(=O)N[C@@H](Cc1ccccc1)C(=O)O (H-Gly-Phe-OH) | > 727 | 31.6 | 9.3 | > 34 |  |  |  |  |  |  |  |  |  |  |  | 
2 | N[C@@H](Cc1cnc[nH]1)C(=O)N[C@@H](Cc1ccccc1)C(=O)O (H-His-Phe-OH) | 0.036 ± 0.002 | 0.478 ± 0.061 | 0.077 ± 0.007 | 0.102 ± 0.033 | yes | yes | yes | yes | yes | yes | yes | yes | yes | yes | yes | yes
3 | N[C@@H](Cc1cnc[nH]1)C(=O)O | > 727 | > 119 | > 227 | > 34 |  |  |  |  | no |  |  |  |  |  |  | 

Now from value to compound:

Row | K D [1] [mM] | K D [2] [mM] | K D [3] [mM] | K D [4] [mM] | binding [5] | binding [6] | binding [7] | binding [8] | binding [9] | binding [10] | binding [11] | binding [12] | binding [13] | binding [14] | binding [15] | binding [16] | Structure (SMILES)
4 | 8.2 | 10.5 | 3.4 | 5.4 |  |  |  |  |  |  |  |  |  |  |  |  | N[C@@H](Cc1c[nH]cn1)C(=O)NCC(=O)O (H-His-Gly-OH)
5 | > 727 | 22 | > 227 | > 34 |  |  |  |  | yes |  |  |  |  |  |  |  | N[C@@H](Cc1ccccc1)C(=O)O

Reference: paper PMC3346935 (2012)
